Assays:
[1] = biological target: T1, CDK9/cyclin T1 (Homo sapiens, UniProt P50750); assay: CDK9/cyclin T1 inhibition constant; assay type: biochemical
T1 construct: His6 (N); made in house; host or cells: Sf9 insect cells (baculovirus)
Method: CDK4/cyclin D1, CDK1/cyclin B, CDK2/cyclin E, CDK2/cyclin A, CDK9/cyclin T1 and CDK7/cyclin H, all with a His6 tag on the N-terminus, were expressed in Sf9 insect cells using an appropriate baculovirus construct. Sf9 culture (1.6×10^6 cells/mL) was infected (MOI of 3) for two days. The cells were harvested by low speed centrifugation and the protein was purified from the insect cell pellet by metal affinity chromatography. In short: the insect cell pellet was lysed in Buffer A (10 mM Tris-HCl pH 8.0, 150 mM NaCl, 0.02% NP-40, 5 mM β-mercaptoethanol, 20 mM NaF, 1 mM Na3VO4, and Sigma Protease Inhibitor Cocktail) by sonication. The soluble fraction was cleared by centrifugation and loaded onto Ni-NTA-Agarose (Qiagen). Non-bound protein was washed off with 300 mM NaCl, 5-15 mM imidazole in buffer A and the bound protein was eluted with buffer A supplemented with 250 mM imidazole. The purified proteins were extensively dialyzed against storage buffer (20 mM HEPES pH 7.4, 50 mM NaCl, 2 mM DTT, 1 mM EDTA, 1 mM EGTA, 0.02% NP-40, 10% v/v glycerol) and stored at −70° C.
Intrinsic inhibition constants (Ki) for example compound XIV against a number of Ser/Thr kinases were determined and are summarized in Table 3.

[2] = biological target: T2, CHK1 (Homo sapiens, UniProt O14757); assay: Protein kinase panel selectivity screen, CHK1; assay type: biochemical; settings: 1 μM compound; [ATP] 20 μM
T2 construct: Dundee University (screening panel)
T2 sequence (O14757 whole entry, species assumed): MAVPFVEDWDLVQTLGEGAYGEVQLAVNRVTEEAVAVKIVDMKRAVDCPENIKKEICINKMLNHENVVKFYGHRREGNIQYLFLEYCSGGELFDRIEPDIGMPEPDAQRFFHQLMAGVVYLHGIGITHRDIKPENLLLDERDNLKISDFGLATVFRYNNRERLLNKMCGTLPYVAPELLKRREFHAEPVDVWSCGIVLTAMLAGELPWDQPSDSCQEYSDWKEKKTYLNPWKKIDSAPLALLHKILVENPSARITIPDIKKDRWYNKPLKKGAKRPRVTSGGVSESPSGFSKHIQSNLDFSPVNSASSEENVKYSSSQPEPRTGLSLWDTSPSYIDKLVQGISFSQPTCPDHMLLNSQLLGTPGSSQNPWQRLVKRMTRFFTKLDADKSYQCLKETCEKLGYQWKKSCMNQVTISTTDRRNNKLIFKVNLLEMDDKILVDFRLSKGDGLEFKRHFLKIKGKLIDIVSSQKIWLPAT
Method: (§1) The names of the 29 kinases comprising the selectivity screen, as well as the ATP concentrations used in each kinase case, are given in Table 5. The kinase assays were carried out as described previously.
(§2) Compound XIV at a concentration of 1 μM was screened in the 29-kinase panel (Dundee University) and the results are shown bellow in Table 6.

[3] = tested on: ZDF fa/fa rats; assay: Oral glucose tolerance test (OGTT); assay type: in vivo, rat; settings: 5 mg/kg i.v. at −270 and −30 min, 2 g/kg oral glucose
Method: Test compound was administrated in 10-11 weeks old ZDF rats at 5 mg/kg i.v. at −270 and −30 min. At 0 min 2 g/kg oral glucose load was given and blood samples were collected at 15 min intervals to determine the blood glucose levels.
For the OGTT male ZDF fa/fa rats (Charles River, USA), 10-11 weeks old, were used. After 15 h fasting the animals were dosed intravenously with 5 mg/kg test compound in dosing vehicle, or with dosing vehicle (10% DMSO, 90% PEG-400) only at −270 and −30 min. At 0 min the rats were given 2 g/kg glucose by oral gavage. Plasma samples were taken before and every 15 min after the OGTT for determination of blood glucose.

[4] = biological target: T3, MAPKAP-K1a (Homo sapiens, UniProt Q15418); assay: Protein kinase panel selectivity screen, MAPKAP-K1a; assay type: biochemical; settings: 1 μM compound; [ATP] 50 μM
T3 construct: Dundee University (panel)
T3 sequence (Q15418 whole entry, species assumed): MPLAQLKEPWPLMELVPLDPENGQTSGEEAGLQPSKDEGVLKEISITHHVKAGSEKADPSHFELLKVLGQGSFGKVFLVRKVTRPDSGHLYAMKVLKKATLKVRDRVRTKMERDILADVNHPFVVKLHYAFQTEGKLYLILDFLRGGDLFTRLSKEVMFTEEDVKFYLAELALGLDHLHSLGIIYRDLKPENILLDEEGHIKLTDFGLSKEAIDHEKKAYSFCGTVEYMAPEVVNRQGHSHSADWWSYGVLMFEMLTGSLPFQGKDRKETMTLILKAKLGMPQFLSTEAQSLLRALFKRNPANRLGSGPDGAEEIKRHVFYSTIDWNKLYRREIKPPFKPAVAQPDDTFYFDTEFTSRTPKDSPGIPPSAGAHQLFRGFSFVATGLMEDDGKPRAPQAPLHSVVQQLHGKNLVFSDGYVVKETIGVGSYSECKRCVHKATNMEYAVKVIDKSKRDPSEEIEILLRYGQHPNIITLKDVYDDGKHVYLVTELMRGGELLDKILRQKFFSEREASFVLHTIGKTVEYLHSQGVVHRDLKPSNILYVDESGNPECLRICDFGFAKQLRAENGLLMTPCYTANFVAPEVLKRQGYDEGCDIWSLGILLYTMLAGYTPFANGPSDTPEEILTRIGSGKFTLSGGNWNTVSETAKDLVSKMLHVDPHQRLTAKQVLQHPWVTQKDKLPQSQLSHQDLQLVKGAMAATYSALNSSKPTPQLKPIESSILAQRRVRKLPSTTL
Method: as §1, §2

[5] = biological target: T4, PKCa (Homo sapiens, UniProt P17252); assay: Protein kinase panel selectivity screen, PKCa; assay type: biochemical; settings: 1 μM compound; [ATP] 20 μM
T4 construct: Dundee University (panel)
Method: as §1, §2

[6] = biological target: T5, NEK6 (Homo sapiens, UniProt Q9HC98); assay: Protein kinase panel selectivity screen, NEK6; assay type: biochemical; settings: 1 μM compound; [ATP] 50 μM
T5 construct: Dundee University (screening panel)
T5 sequence (Q9HC98 whole entry, species assumed): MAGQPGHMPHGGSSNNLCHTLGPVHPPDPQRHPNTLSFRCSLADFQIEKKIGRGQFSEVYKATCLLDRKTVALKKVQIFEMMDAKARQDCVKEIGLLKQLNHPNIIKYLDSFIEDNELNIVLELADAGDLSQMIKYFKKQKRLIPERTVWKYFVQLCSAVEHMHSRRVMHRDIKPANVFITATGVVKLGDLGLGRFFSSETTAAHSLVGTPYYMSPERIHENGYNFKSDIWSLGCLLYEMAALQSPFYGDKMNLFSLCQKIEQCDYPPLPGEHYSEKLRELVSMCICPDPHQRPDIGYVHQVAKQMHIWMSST
Method: as §1, §2

[7] = tested on: Lck; assay: Protein kinase panel selectivity screen, Lck; assay type: biochemical; settings: 1 μM compound; [ATP] 50 μM
Method: as §1, §2

[8] = biological target: T6, PRAK (Homo sapiens, UniProt Q8IW41); assay: Protein kinase panel selectivity screen, PRAK; assay type: biochemical; settings: 1 μM compound; [ATP] 20 μM
T6 construct: Dundee University (panel)
T6 sequence (Q8IW41 whole entry, species assumed): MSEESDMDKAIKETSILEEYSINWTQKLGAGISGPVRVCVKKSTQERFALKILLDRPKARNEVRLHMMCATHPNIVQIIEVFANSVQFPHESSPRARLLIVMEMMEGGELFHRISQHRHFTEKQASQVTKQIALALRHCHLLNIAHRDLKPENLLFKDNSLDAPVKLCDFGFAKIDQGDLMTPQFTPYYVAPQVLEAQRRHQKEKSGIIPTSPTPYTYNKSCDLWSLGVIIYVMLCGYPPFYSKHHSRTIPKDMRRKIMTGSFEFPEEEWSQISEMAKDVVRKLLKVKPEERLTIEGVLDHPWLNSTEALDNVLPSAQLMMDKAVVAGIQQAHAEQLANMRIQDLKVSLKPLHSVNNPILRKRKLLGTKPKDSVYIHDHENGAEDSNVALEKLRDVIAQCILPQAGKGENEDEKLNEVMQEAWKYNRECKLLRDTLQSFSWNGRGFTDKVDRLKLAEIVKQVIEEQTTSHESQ
Method: as §1, §2

[9] = biological target: T7, PHK (Oryctolagus cuniculus, UniProt P00518); assay: Protein kinase panel selectivity screen, PHK; assay type: biochemical; settings: 1 μM compound; [ATP] 20 μM
T7 construct: Dundee University (screening panel)
Method: as §1, §2

[10] = biological target: T8, SAPK4/p38d (Homo sapiens, UniProt O15264); assay: Protein kinase panel selectivity screen, SAPK4/p38d; assay type: biochemical; settings: 1 μM compound
T8 construct: Dundee University (panel)
T8 sequence (O15264 whole entry): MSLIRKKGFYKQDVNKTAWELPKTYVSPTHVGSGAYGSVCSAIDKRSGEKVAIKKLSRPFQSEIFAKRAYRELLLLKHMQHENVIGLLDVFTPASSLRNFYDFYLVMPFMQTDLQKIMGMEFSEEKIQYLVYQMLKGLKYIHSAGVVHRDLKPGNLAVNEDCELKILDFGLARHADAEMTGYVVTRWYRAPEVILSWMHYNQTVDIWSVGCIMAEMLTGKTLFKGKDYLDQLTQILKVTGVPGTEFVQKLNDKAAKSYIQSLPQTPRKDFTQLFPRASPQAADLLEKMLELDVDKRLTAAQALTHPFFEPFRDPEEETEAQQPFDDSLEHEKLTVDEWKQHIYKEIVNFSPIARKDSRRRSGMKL
Method: as §1, §2

[11] = biological target: T9, MKK1 (Homo sapiens, UniProt Q02750); assay: Protein kinase panel selectivity screen, MKK1; assay type: biochemical; settings: 1 μM compound; [ATP] 5 μM
T9 construct: Dundee University (panel)
T9 sequence (Q02750 whole entry, species assumed): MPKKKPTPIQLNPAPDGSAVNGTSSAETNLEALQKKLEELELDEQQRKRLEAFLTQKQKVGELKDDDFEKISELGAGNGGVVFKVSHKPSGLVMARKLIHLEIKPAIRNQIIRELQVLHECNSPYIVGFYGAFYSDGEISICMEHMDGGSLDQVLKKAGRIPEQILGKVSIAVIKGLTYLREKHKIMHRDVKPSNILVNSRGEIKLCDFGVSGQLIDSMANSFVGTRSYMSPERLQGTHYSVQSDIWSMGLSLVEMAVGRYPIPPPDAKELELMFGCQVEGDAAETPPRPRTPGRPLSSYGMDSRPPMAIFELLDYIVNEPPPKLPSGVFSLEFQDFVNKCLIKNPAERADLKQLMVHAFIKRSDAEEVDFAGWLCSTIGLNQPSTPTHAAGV
Method: as §1, §2

[12] = biological target: T10, MSK1 (Homo sapiens, UniProt O75582); assay: Protein kinase panel selectivity screen, MSK1; assay type: biochemical; settings: 1 μM compound; [ATP] 20 μM
T10 construct: Dundee University (panel)
Method: as §1, §2

[13] = biological target: T11, GSK-3β (Oryctolagus cuniculus, UniProt G1T8E2); assay: GSK-3β kinase assay; assay type: biochemical, rabbit
T11 construct: isolated from a strain of E. coli that carries a clone expressing GSK-3β derived from a rabbit skeletal muscle cDNA library [34]
T11 sequence (G1T8E2 1-432): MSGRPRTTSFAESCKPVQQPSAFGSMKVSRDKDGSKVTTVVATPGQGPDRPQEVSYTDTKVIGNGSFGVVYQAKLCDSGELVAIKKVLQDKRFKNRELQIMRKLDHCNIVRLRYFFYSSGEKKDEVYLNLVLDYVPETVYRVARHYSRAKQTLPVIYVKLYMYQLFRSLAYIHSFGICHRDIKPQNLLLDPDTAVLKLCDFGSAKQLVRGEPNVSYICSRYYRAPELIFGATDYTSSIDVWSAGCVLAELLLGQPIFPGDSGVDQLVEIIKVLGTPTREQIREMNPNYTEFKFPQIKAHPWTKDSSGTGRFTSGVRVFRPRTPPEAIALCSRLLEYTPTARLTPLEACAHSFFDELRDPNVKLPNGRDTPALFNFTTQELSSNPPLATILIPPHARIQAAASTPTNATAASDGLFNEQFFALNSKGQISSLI
Method: GSK-3 was obtained from New England Biolabs (UK) Ltd., Hitchin, Herts. The recombinant enzyme was isolated from a strain of E. coli that carries a clone expressing GSK-3β derived from a rabbit skeletal muscle cDNA library. Inhibition of GSK-3 function was assessed by measurement of phosphorylation of CREB phosphopeptide KRREILSRRPpSYR in the presence of test compounds. Using a 96-well assay format, GSK3 (7.5 U) was incubated for 30 min at 30° C. in a total volume of 25 μL in 20 mM MOPS pH 7.2, 25 mM β-glycerophosphate, 5 mM EGTA, 1 mM DTT, 1 mM […], 40 μM CREB peptide, 15 mM MgCl2 and 100 μM ATP (containing 0.25 μCi [γ-^32P]-ATP) in the presence of varying concentrations of test compound. The samples were transferred to 96-well p81 filter plates (Whatman Polyfiltronics, Kent, UK), and the plates were washed 4 times with 200 μL/well of 75 mM aq orthophosphoric acid. Scintillation liquid (50 μL) was added to each well, and incorporated radioactivity for each sample was determined using a scintillation counter (TopCount, Packard Instruments, Pangbourne, Berks, UK).

T1 sequence (P50750 whole entry, species assumed): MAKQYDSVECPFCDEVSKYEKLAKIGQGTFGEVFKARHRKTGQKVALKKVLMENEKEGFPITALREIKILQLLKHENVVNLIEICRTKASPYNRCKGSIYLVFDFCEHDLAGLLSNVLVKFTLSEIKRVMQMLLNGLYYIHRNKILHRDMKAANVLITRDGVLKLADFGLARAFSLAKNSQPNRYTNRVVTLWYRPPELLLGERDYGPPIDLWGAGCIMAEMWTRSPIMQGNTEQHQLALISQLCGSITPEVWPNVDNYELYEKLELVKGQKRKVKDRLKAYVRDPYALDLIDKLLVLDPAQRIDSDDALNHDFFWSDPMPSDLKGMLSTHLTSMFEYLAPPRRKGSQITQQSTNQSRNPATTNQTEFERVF
T1 sequence (O60563 whole entry partner, species assumed): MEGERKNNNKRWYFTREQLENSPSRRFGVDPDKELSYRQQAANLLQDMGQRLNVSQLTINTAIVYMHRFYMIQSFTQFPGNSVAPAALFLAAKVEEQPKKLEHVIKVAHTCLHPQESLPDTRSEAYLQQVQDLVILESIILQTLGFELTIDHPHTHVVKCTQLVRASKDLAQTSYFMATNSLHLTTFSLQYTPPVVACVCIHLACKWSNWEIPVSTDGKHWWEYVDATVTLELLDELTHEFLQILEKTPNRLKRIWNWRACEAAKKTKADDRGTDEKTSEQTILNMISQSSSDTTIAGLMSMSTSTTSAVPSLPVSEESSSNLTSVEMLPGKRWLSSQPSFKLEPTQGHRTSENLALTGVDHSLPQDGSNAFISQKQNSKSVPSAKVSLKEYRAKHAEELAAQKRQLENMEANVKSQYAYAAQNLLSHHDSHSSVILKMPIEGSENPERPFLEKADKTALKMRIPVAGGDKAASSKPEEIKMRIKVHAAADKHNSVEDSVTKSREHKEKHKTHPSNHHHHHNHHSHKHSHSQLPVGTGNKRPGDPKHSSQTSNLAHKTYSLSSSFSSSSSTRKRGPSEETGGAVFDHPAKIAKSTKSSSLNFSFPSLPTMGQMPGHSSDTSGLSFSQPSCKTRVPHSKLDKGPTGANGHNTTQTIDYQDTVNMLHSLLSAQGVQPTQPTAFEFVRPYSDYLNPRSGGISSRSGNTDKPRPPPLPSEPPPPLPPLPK

Clc1ccc(Nc2nccc(-c3nccs3)n2)cn1 [Compound XIV, (6-Chloro-pyridin-3-yl)-(4-thiazol-2-yl-pyrimidin-2-yl)-amine]
Ki [1]: 500 nM
Fold selectivity for GSK3 over CDK9/cyclin T1 ([1]; from Ki): 31 fold
activity at 1 µM [2]: 78 ± 4%
Decrease of absolute AUC level (blood glucose) [3]: 29%
Decrease of reactive AUC level (blood glucose) [3]: 44%
Glucose tolerance [3]: improved the glucose tolerance in ZDF rats significantly
activity at 1 µM [4]: 60 ± 1%
activity at 1 µM [5]: 76%
activity at 1 µM [6]: 87 ± 6%
% Activity Lck [7]: 66 ± 5%
activity at 1 µM [8]: 83 ± 3%
activity at 1 µM [9]: 120 ± 7%
inhibition at 1 µM [10]: ~40%
activity at 1 µM ([10]; [ATP] 5 μM): 91 ± 9%
activity at 1 µM [11]: 83 ± 4%
activity at 1 µM [12]: 90 ± 6%
Ki ([13]; read-out: Ki GSK3): 16 nM
IC50 ([13]; read-out: Kinase inhibition IC50 GSK3β): 176 nM
